Measured values: ChEMBL document CHEMBL1139006, “Synthesis and in vitro antibiotic activity of 16-membered 9-O-arylalkyloxime macrolides” (2006)
Converted amounts (≈) assume the structure as drawn.

Key:
Format in all cases: functional
Streptococcus pneumoniae [1] = assay: Antibacterial activity against Streptococcus pneumoniae ATCC 6301
Streptococcus pneumoniae [2] = assay: Antibacterial activity against Streptococcus pneumoniae ATCC 700671
Streptococcus pneumoniae [3] = assay: Antibacterial activity against macrolide resistant Streptococcus pneumoniae ATCC 700676
Streptococcus pneumoniae [4] = assay: Antibacterial activity against macrolide resistant Streptococcus pneumoniae ATCC 700677
Streptococcus pneumoniae [5] = assay: Antibacterial activity against macrolide resistant Streptococcus pneumoniae ATCC 700905
Streptococcus pneumoniae [6] = assay: Antibacterial activity against macrolide resistant Streptococcus pneumoniae ATCC 700906
Streptococcus pneumoniae [7] = assay: Antibacterial activity against Streptococcus pneumoniae ATCC 49619
Staphylococcus aureus [8] = assay: Antibacterial activity against Staphylococcus aureus ATCC 6538p
Staphylococcus aureus [9] = assay: Antibacterial activity against macrolide resistant Staphylococcus aureus ATCC 33591
Staphylococcus aureus [10] = assay: Antibacterial activity against macrolide resistant Staphylococcus aureus ATCC 141541
Staphylococcus aureus [11] = assay: Antibacterial activity against macrolide resistant Staphylococcus aureus ATCC BAA-39
Staphylococcus aureus [12] = assay: Antibacterial activity against macrolide resistant Staphylococcus aureus ATCC BAA-44
Staphylococcus aureus [13] = assay: Antibacterial activity against Staphylococcus aureus ATCC 29213
[14] = tested on: Staphylococcus epidermidis; assay: Antibacterial activity against Staphylococcus epidermidis ATCC 12228
Enterococcus faecalis = assay: Antibacterial activity against Enterococcus faecalis ATCC 51575

Row | Structure (SMILES) | MIC (Streptococcus pneumoniae [1]) [µg/mL] | MIC (Streptococcus pneumoniae [2]) [µg/mL] | MIC (Streptococcus pneumoniae [3]) [µg/mL] | MIC (Streptococcus pneumoniae [4]) [µg/mL] | MIC (Streptococcus pneumoniae [5]) [µg/mL] | MIC (Streptococcus pneumoniae [6]) [µg/mL] | MIC (Streptococcus pneumoniae [7]) [µg/mL] | MIC (Staphylococcus aureus [8]) [µg/mL] | MIC (Staphylococcus aureus [9]) [µg/mL] | MIC (Staphylococcus aureus [10]) [µg/mL] | MIC (Staphylococcus aureus [11]) [µg/mL] | MIC (Staphylococcus aureus [12]) [µg/mL] | MIC (Staphylococcus aureus [13]) [µg/mL] | MIC [14] [µg/mL] | MIC (Enterococcus faecalis) [µg/mL]
1 | CC[C@H]1OC(=O)C[C@@H](O)[C@H](C)[C@@H](O[C@@H]2O[C@H](C)[C@@H](O)[C@H](N(C)C)[C@@H]2O)[C@@H](CCN2CC(C)CC(C)C2)C[C@@H](C)C(=N\OCC(=O)N2CCN(c3ccccc3)CC2)/C=C/C(C)=C/C1CO (stereo not given in full) | 0.049 (≈ 0.0537 µM) | 0.098 (≈ 0.107 µM) | 4.56 (≈ 5 µM) | > 12.5 | 0.78 (≈ 0.855 µM) | > 12.5 | 0.049 (≈ 0.0537 µM) | 0.39 (≈ 0.428 µM) | > 12.5 | 3.12 (≈ 3.42 µM) | > 12.5 | > 12.5 | 1.56 (≈ 1.71 µM) | 0.78 (≈ 0.855 µM) | > 12.5
2 | CC[C@H]1OC(=O)C[C@@H](O)[C@H](C)[C@@H](O[C@@H]2O[C@H](C)[C@@H](O)[C@H](N(C)C)[C@H]2O)[C@@H](CC=O)C[C@@H](C)C(=N/OCC#Cc2cnc3ccccc3c2)/C=C/C(C)=C/C1CO (stereo not given in full) | 0.025 (≈ 0.0321 µM) | 0.025 (≈ 0.0321 µM) | 0.025 (≈ 0.0321 µM) | > 12.5 | 0.049 (≈ 0.063 µM) | > 12.5 | 0.025 (≈ 0.0321 µM) | 0.098 (≈ 0.126 µM) | > 12.5 | 0.39 (≈ 0.501 µM) | > 12.5 | > 12.5 | 0.39 (≈ 0.501 µM) | 0.098 (≈ 0.126 µM) | > 12.5
3 | CC[C@H]1OC(=O)C[C@@H](O)[C@H](C)[C@@H](O[C@@H]2O[C@H](C)[C@@H](O)[C@H](N(C)C)[C@H]2O)[C@@H](CC=O)C[C@@H](C)C(=N/OC/C=C\c2ccc3nccnc3c2)/C=C/C(C)=C/C1CO (stereo not given in full) | 0.025 (≈ 0.032 µM) | 0.049 (≈ 0.0627 µM) | 0.049 (≈ 0.0627 µM) | > 12.5 | 0.049 (≈ 0.0627 µM) | > 12.5 | 0.025 (≈ 0.032 µM) | 0.2 (≈ 0.256 µM) | > 12.5 | 0.39 (≈ 0.499 µM) | > 12.5 | > 12.5 | 0.39 (≈ 0.499 µM) | 0.2 (≈ 0.256 µM) | > 12.5
4 | CC[C@H]1OC(=O)C[C@@H](O)[C@H](C)[C@@H](O[C@@H]2O[C@H](C)[C@@H](O)[C@H](N(C)C)[C@H]2O)[C@@H](CC=O)C[C@@H](C)C(=N/OCCOc2ccccc2)/C=C/C(C)=C/C1CO (stereo not given in full) | 0.025 (≈ 0.0341 µM) | 0.025 (≈ 0.0341 µM) | 0.025 (≈ 0.0341 µM) | 0.39 (≈ 0.532 µM) | 0.025 (≈ 0.0341 µM) | > 12.5 | 0.01 (≈ 0.0136 µM) | 0.098 (≈ 0.134 µM) | > 12.5 | 0.39 (≈ 0.532 µM) | > 12.5 | > 12.5 | 0.2 (≈ 0.273 µM) | 0.2 (≈ 0.273 µM) | > 12.5
5 | CC[C@H]1OC(=O)C[C@@H](O)[C@H](C)[C@@H](O[C@@H]2O[C@H](C)[C@@H](O)[C@H](N(C)C)[C@H]2O)[C@@H](CC=O)C[C@@H](C)C(=N\OCCOc2ccccc2)/C=C/C(C)=C/C1CO (stereo not given in full) | 0.098 (≈ 0.134 µM) | 0.39 (≈ 0.532 µM) | 0.2 (≈ 0.273 µM) | 1.56 (≈ 2.13 µM) | 0.78 (≈ 1.06 µM) | > 12.5 | 0.2 (≈ 0.273 µM) | 1.56 (≈ 2.13 µM) | > 12.5 | 3.12 (≈ 4.26 µM) | > 12.5 | > 12.5 | 3.12 (≈ 4.26 µM) | 1.56 (≈ 2.13 µM) | > 12.5
6 | CC[C@H]1OC(=O)C[C@@H](O)[C@H](C)[C@@H](O[C@@H]2O[C@H](C)[C@@H](O)[C@H](N(C)C)[C@H]2O)[C@@H](CC=O)C[C@@H](C)C(=N\OCc2ccccc2)/C=C/C(C)=C/C1CO (stereo not given in full) | 0.2 (≈ 0.285 µM) | 0.39 (≈ 0.555 µM) | 0.2 (≈ 0.285 µM) | 3.12 (≈ 4.44 µM) | 0.39 (≈ 0.555 µM) | > 12.5 | 0.2 (≈ 0.285 µM) | 0.78 (≈ 1.11 µM) | > 12.5 | 1.56 (≈ 2.22 µM) | > 12.5 | > 12.5 | 1.56 (≈ 2.22 µM) | 1.56 (≈ 2.22 µM) | > 12.5
7 | CC[C@H]1OC(=O)C[C@@H](O)[C@H](C)[C@@H](O[C@@H]2O[C@H](C)[C@@H](O)[C@H](N(C)C)[C@@H]2O)[C@@H](CCN2CC(C)CC(C)C2)C[C@@H](C)C(=N/OCCCc2ccc3ncccc3c2)/C=C/C(C)=C/C1CO (stereo not given in full) | 6.25 (≈ 7.11 µM) | 6.25 (≈ 7.11 µM) | > 12.5 | > 12.5 | > 12.5 | > 12.5 | 6.25 (≈ 7.11 µM) | 12.5 (≈ 14.2 µM) | > 12.5 | > 12.5 | > 12.5 | > 12.5 | > 12.5 | > 12.5 | > 12.5
8 | CC[C@H]1OC(=O)C[C@@H](O)[C@H](C)[C@@H](O[C@@H]2O[C@H](C)[C@@H](O)[C@H](N(C)C)[C@@H]2O)[C@@H](CCN2CC(C)CC(C)C2)C[C@@H](C)C(=O)/C=C/C(C)=C/C1CO (stereo not given in full) | 0.39 (≈ 0.561 µM) | 0.78 (≈ 1.12 µM) | 1.56 (≈ 2.24 µM) | > 12.5 | 1.56 (≈ 2.24 µM) | > 12.5 | 0.78 (≈ 1.12 µM) | 0.39 (≈ 0.561 µM) | > 12.5 | 1.56 (≈ 2.24 µM) | > 12.5 | > 12.5 | 1.56 (≈ 2.24 µM) | 0.78 (≈ 1.12 µM) | > 12.5
